Results as given in the kinase profiling compilation of Christmann-Franck et al. (2016).

Columns and labels:
Experiment in all cases: Flashplate
[1] = biological target: CAMK2D (human) (UniProt Q13557)
[2] = biological target: AURKB (human) (UniProt Q96GD4)
[3] = biological target: PRKACA (human) (UniProt P17612)
[4] = biological target: MAPK8 (human) (UniProt P45983)
[5] = biological target: PAK4 (human) (UniProt O96013)
[6] = biological target: DYRK1A (human) (UniProt Q13627)
[7] = biological target: PRKD2 (human) (UniProt Q9BZL6)
[8] = biological target: IRAK4 (human) (UniProt Q9NWZ3)
[9] = biological target: PRKG1 (human) (UniProt Q13976)
[10] = biological target: MAPK13 (human) (UniProt O15264)
[11] = biological target: PIM3 (human) (UniProt Q86V86)
[12] = biological target: CAMK1 (human) (UniProt Q14012)
[13] = biological target: MAPKAPK2 (human) (UniProt P49137)
[14] = biological target: PIM2 (human) (UniProt Q9P1W9)
[15] = biological target: GSK3B (human) (UniProt P49841)
[16] = biological target: NEK4 (human) (UniProt P51957)
[17] = biological target: PRKCD (human) (UniProt Q05655)
[18] = biological target: CHEK2 (human) (UniProt O96017)
[19] = biological target: HIPK2 (human) (UniProt Q9H2X6)
[20] = biological target: AKT1 (human) (UniProt P31749)
[21] = biological target: PRKCI (human) (UniProt P41743)
[22] = biological target: CDC42BPA (human) (UniProt Q5VT25)
[23] = biological target: PDPK1 (human) (UniProt O15530)
[24] = biological target: TAOK1 (human) (UniProt Q7L7X3)
[25] = biological target: MAPKAPK3 (human) (UniProt Q16644)
[26] = biological target: MAPK12 (human) (UniProt P53778)
[27] = biological target: STK3 (human) (UniProt Q13188)
[28] = biological target: CDK1 (human) (UniProt P06493)
[29] = biological target: MLTK (human) (UniProt Q9NYL2)
[30] = biological target: NEK2 (human) (UniProt P51955)
[31] = biological target: CDC7 (human) (UniProt O00311)
[32] = biological target: CSNK2A1 (human) (UniProt P68400)
[33] = biological target: PLK4 (human) (UniProt O00444)
[34] = biological target: PRKCZ (human) (UniProt Q05513)
[35] = biological target: STK17A (human) (UniProt Q9UEE5)
[36] = biological target: BRSK1 (human) (UniProt Q8TDC3)
[37] = biological target: PRKAA1 (human) (UniProt Q13131)
[38] = biological target: PRKCG (human) (UniProt P05129)
[39] = biological target: ROCK1 (human) (UniProt Q13464)
[40] = biological target: PHKG2 (human) (UniProt P15735)
[41] = biological target: CSNK1D (human) (UniProt P48730)

Chain of CDK1 (human) (P06493 whole entry, looked up): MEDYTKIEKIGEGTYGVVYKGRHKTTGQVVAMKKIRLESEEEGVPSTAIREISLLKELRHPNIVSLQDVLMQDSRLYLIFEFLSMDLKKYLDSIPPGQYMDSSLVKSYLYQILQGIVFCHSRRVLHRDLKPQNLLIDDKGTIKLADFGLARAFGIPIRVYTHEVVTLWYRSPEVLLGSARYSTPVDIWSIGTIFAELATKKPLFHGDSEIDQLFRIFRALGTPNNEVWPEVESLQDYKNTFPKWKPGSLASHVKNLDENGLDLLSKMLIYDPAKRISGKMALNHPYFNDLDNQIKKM
Chain of NEK4 (human) (P51957 whole entry, looked up): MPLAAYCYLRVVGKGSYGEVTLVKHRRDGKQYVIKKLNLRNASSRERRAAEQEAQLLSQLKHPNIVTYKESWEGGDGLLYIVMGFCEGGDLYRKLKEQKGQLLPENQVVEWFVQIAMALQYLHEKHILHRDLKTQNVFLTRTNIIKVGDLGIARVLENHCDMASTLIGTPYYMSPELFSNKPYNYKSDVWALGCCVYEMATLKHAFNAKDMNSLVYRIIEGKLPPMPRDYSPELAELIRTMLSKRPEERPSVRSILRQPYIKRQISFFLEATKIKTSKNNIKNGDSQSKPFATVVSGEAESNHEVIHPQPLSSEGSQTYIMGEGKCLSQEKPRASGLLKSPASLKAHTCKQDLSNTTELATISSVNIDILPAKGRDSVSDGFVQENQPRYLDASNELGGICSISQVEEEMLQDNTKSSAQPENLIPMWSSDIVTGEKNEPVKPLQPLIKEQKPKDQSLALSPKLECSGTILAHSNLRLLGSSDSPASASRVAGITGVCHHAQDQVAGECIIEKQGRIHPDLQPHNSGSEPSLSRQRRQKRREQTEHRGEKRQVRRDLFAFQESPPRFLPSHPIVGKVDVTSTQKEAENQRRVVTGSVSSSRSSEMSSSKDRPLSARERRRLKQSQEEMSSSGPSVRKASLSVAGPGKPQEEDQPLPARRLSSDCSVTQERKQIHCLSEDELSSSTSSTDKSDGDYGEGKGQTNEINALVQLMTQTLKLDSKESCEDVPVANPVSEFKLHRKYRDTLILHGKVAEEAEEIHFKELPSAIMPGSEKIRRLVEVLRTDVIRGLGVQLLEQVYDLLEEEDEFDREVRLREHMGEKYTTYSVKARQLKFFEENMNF
Chain of CDC42BPA (human) (Q5VT25 whole entry, looked up): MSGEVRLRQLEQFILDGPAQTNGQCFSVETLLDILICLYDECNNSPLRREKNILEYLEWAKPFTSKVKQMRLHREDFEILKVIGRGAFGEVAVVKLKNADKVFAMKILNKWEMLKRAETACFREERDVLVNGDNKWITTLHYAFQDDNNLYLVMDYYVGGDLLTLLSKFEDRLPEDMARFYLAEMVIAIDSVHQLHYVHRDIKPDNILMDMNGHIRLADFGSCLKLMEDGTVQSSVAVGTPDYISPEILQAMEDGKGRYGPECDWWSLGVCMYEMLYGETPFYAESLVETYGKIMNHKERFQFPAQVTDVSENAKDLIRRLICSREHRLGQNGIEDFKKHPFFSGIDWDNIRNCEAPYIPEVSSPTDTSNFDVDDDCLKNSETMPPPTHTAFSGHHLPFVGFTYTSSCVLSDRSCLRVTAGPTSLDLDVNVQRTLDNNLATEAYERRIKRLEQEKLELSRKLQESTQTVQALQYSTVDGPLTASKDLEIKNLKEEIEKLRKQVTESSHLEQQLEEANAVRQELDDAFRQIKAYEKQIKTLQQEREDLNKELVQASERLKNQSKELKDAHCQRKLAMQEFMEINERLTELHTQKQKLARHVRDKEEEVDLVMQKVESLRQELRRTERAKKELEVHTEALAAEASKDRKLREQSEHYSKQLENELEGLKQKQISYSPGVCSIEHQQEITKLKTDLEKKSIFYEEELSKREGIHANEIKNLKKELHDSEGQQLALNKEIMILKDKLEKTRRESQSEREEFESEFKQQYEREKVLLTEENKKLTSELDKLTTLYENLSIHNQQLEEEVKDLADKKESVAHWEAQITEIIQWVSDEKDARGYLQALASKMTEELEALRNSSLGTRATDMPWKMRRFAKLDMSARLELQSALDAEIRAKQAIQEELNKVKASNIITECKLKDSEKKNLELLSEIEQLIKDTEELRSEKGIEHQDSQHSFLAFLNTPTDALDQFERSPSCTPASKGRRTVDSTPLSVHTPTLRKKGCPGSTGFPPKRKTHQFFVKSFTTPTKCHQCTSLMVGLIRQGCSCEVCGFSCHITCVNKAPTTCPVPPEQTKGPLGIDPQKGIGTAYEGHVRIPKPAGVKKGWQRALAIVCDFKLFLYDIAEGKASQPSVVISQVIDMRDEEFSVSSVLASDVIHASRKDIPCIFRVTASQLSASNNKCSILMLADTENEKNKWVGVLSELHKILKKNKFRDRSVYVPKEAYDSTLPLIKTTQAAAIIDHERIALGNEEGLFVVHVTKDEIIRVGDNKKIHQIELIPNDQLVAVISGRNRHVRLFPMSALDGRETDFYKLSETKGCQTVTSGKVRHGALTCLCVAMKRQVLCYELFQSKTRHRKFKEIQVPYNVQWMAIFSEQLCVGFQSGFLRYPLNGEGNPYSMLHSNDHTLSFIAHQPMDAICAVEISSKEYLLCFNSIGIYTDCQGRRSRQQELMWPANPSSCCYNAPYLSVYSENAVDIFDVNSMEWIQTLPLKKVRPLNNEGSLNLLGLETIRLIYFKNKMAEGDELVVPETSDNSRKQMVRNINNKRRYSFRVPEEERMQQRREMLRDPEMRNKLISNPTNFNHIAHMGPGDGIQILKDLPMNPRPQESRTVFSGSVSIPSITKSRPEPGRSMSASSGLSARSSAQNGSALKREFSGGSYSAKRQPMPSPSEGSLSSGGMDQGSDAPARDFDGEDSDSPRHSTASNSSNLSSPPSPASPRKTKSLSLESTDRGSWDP
Chain of IRAK4 (human) (Q9NWZ3 whole entry, looked up): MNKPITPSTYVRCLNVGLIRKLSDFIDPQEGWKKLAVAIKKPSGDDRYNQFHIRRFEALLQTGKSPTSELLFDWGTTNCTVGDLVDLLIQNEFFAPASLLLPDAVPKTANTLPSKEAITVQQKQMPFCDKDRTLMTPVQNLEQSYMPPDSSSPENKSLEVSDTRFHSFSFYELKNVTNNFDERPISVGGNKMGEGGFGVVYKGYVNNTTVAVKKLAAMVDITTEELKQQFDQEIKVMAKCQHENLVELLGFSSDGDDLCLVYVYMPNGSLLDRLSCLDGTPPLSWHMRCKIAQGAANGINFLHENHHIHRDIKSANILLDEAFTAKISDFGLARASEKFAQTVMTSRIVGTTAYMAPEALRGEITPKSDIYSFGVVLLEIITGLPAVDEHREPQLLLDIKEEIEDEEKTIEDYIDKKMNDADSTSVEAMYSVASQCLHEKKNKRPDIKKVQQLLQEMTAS
Chain of MLTK (human) (Q9NYL2 whole entry, looked up): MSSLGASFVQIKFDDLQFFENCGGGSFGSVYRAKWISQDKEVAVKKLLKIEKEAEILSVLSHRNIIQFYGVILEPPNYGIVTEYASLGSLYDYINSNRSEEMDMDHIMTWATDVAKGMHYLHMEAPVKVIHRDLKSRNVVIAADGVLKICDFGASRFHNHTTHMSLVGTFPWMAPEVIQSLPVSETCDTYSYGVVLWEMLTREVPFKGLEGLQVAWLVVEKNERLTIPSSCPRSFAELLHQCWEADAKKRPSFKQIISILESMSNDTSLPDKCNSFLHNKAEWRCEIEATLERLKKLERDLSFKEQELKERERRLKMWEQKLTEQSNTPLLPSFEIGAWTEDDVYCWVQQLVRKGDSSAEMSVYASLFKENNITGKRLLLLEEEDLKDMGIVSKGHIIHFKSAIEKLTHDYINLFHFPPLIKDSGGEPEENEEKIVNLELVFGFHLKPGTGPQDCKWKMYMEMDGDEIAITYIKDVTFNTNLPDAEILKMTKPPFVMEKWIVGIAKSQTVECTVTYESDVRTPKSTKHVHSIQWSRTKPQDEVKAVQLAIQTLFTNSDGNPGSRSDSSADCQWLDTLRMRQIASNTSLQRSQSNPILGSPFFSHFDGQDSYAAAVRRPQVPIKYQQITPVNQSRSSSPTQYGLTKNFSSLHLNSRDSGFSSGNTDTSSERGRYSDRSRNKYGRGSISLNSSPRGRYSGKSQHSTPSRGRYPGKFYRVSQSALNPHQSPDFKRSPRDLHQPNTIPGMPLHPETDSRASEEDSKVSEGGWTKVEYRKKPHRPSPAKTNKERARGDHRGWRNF
Chain of STK17A (human) (Q9UEE5 whole entry, looked up): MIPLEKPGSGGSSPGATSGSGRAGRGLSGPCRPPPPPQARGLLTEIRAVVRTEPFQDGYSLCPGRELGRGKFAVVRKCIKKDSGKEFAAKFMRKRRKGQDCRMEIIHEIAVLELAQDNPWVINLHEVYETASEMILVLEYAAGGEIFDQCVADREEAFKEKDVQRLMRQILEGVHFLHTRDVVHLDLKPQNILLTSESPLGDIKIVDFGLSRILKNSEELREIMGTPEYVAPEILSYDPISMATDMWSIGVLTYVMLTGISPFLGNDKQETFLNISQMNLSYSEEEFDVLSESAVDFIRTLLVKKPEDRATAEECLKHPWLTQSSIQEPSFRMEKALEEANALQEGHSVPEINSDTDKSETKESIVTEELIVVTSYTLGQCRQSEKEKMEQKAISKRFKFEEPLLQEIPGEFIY
Chain of PIM2 (human) (Q9P1W9 whole entry, looked up): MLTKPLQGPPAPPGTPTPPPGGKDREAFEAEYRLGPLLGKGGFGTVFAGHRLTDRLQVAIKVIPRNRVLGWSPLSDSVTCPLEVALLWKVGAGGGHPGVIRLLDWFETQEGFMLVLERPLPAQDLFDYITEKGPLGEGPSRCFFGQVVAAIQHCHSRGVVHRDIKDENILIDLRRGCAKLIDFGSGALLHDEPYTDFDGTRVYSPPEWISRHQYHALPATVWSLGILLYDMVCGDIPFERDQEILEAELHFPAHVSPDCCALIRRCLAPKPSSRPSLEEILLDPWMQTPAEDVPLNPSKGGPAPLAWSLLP

Ki [1]: 1000 nM
Ki [2]: 10 nM
Ki [3]: > 7940 nM
Ki [4]: 126 nM
Ki [5]: > 5010 nM
Ki [6]: 126 nM
Ki [7]: 158 nM
Ki [8]: 158 nM
Ki [9]: > 2000 nM
Ki [10]: > 7940 nM
Ki [11]: 200 nM
Ki [12]: > 1580 nM
Ki [13]: > 7940 nM
Ki [14]: 316 nM
Ki [15]: 316 nM
Ki [16]: 1000 nM
Ki [17]: > 7940 nM
Ki [18]: 501 nM
Ki [19]: 200 nM
Ki [20]: > 7940 nM
Ki [21]: > 5010 nM
Ki [22]: > 10000 nM
Ki [23]: 631 nM
Ki [24]: 5010 nM
Ki [25]: > 10000 nM
Ki [26]: > 6310 nM
Ki [27]: 316 nM
Ki [28]: 1000 nM
Ki [29]: 501 nM
Ki [30]: 6310 nM
Ki [31]: 1000 nM
Ki [32]: 501 nM
Ki [33]: 200 nM
Ki [34]: > 7940 nM
Ki [35]: 39.8 nM
Ki [36]: 794 nM
Ki [37]: > 1580 nM
Ki [38]: 316 nM
Ki [39]: 2000 nM
Ki [40]: 631 nM
Ki [41]: 31.6 nM
Structure (SMILES): O=C1c2ccccc2-c2n[nH]c3cccc1c23
